Source: PMC3119659, “Ligand Activation of the Prokaryotic Pentameric Ligand-Gated Ion Channel ELIC” (PLoS Biology, 2011)
Entries after “also recorded” stand apart in the source; their conditions may differ. Like-named read-outs stand apart in the source and are kept apart here.

Key:
[1] = biological target: T1, ELIC (Dickeya chrysanthemi, UniProt P0C7B7); assay: cell-based; assay type: cell-based, Erwinia chrysanthemi; settings: for activating current response of ELIC to the ligand: ligand added to the extracellular solution, 10 mM, compared with 2 mM cysteamine; for n (Hill coefficient) / EC50: WT; for EC50: read-out: EC50 of activation of ELIC
T1 construct: expressed in transfected cells; host or cells: Xenopus laevis oocytes (cRNA injection, pTLN vector)
T1 sequence (P0C7B7 whole entry): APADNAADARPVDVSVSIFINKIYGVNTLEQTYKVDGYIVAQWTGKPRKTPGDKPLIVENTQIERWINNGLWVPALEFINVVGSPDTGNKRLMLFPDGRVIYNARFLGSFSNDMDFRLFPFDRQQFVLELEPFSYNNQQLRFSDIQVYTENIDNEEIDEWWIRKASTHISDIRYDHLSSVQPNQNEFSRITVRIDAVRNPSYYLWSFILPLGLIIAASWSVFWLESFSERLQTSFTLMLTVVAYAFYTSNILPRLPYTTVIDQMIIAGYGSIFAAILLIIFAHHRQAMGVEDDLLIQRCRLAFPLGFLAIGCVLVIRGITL
Excerpt: To identify ligands that activate ELIC we have expressed the protein in Xenopus laevis oocytes and investigated the response to potential agonists by the two-electrode voltage-clamp technique. Based on the volume and chemical properties of the proposed ligand binding region and the presence of positively charged ions bound to this site, we reasoned that parts of the agonists might have a cationic character. […] Our library included different natural products such as amino acids and their derivatives, metabolites, and related synthetic substances (Figure S3A).
Constructs containing the gene of either the WT channel or point mutants preceded by the signal sequence of the chicken α7nAchR were cloned into the pTLN vector for expression in X. laevis oocytes. After linearization of the plasmid DNA by MluI, capped complementary RNA was transcribed with the mMessage mMachine kit (Ambion) and purified with the RNeasy kit (Qiagen). For expression, 1–50 ng of RNA was injected into defolliculated oocytes. Two-electrode voltage clamp measurements were performed one day after injection at 20°C (OC-725B, Warner Instrument Corp.). […] Cysteamine containing solutions were supplemented with 1 mM DTT.

[2] = biological target: T2, ELIC V40A (Dickeya chrysanthemi, UniProt P0C7B7, V40A); assay: Two-electrode voltage clamp of ELIC point mutant V40A in oocytes; assay type: cell-based, Erwinia chrysanthemi; settings: for EC50: read-out: EC50 of activation
T2 construct: expressed in transfected cells; host or cells: Xenopus laevis oocytes (cRNA injection, pTLN vector)
T2 sequence (P0C7B7 whole entry V40A): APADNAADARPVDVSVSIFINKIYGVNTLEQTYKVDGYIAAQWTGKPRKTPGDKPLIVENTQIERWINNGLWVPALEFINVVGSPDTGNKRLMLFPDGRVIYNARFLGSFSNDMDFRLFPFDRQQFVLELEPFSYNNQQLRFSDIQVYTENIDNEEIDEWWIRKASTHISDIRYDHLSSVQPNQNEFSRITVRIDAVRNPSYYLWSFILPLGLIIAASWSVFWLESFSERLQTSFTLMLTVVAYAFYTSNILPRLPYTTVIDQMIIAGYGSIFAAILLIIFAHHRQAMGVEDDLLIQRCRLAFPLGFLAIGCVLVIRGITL
Excerpt: (§1) To investigate the role of residues surrounding the bound ligand for channel activation, we have mutated single residues to alanine and we have measured activation with the two-electrode voltage-clamp technique (Table 2). For many mutants there was no response to the addition of cysteamine. This was the case for all investigated residues of the principal site, such as Glu77 and Glu131, that may interact with the primary amino group and hydrophobic and aromatic residues (i.e., Phe187, Phe133, Tyr174, Ile79) that surround the aliphatic carbon atoms of the ligand. The effect of mutations on the complementary side, in contrast, was diverse and in some cases less drastic. The mutations of Phe19 on β-1 and Val40 on β-2 shifted the activation towards higher agonist concentrations (Figure 4B).
(§2) Constructs containing the gene of either the WT channel or point mutants preceded by the signal sequence of the chicken α7nAchR were cloned into the pTLN vector for expression in X. laevis oocytes. After linearization of the plasmid DNA by MluI, capped complementary RNA was transcribed with the mMessage mMachine kit (Ambion) and purified with the RNeasy kit (Qiagen). For expression, 1–50 ng of RNA was injected into defolliculated oocytes. Two-electrode voltage clamp measurements were performed one day after injection at 20°C (OC-725B, Warner Instrument Corp.). Currents were recorded in bath solutions containing 10 mM HEPES (pH 7), 130 mM NaCl, and the respective ligands. Cysteamine containing solutions were supplemented with 1 mM DTT.

[3] = biological target: T3, ELIC R91A (Dickeya chrysanthemi, UniProt P0C7B7, R91A); assay: Two-electrode voltage clamp of ELIC point mutant R91A in oocytes; assay type: cell-based, Erwinia chrysanthemi; settings: for n (Hill coefficient) / EC50: mutant R91A; for fold decrease of the EC50: mutant R91A compared with WT; for EC50: read-out: EC50 of activation
T3 construct: expressed in transfected cells; host or cells: Xenopus laevis oocytes (cRNA injection, pTLN vector)
T3 sequence (P0C7B7 whole entry R91A): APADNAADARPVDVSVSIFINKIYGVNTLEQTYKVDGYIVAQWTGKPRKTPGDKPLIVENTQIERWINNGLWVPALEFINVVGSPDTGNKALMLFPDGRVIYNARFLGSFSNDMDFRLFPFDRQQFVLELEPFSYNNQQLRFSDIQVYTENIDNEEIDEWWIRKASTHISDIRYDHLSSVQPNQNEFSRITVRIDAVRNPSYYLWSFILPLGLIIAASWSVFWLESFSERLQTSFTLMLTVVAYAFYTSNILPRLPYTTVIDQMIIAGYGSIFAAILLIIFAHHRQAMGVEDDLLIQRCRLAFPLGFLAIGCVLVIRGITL
Excerpt: as §1, §2

[4] = biological target: T1, ELIC; assay: Patch clamp of excised outside-out patches, fast solution exchange (activation and deactivation kinetics); assay type: cell-based, Erwinia chrysanthemi; settings: -60 mV, n = 19, errors s.d., upper limit
Method: We have thus used this molecule as an agonist in most subsequent experiments. […] Stable currents over a period of seconds were obtained upon addition of high micromolar concentrations of cysteamine to the extracellular medium (Figure 3A). At longer incubations with the ligand, however, the currents decayed, which is indicative for a slow desensitization of the channel (Figure S4A). […] To follow the time-course of activation and deactivation, we have investigated excised outside-out patches in response to fast solution exchange. A similar phenotype of currents as previously seen in two-electrode voltage clamp recordings, although with faster kinetics of desensitization, was also observed for macroscopic currents in a patch clamp experiment (Figure 3B, Figure S4B). At 5 mM cysteamine, channel activation and deactivation can be approximated by exponential functions with time constants in the ms range (τact = 20±5 ms, n = 19, τdeact = 53±7 ms, n = 19, all errors are s.d.). […]
Membrane patches of X. laevis oocytes were recorded in the excised outside-out configuration 2–3 d after injection of mRNA with an Axopatch 200B amplifier (Axon Instruments) at 20°C. Data were sampled at 100 µs, filtered with 1,000 Hz, and analyzed using Clampfit (Axon Instruments, Inc.). […]

[5] = biological target: T4, ELIC F19A (Dickeya chrysanthemi, UniProt P0C7B7, F19A); assay: Two-electrode voltage clamp of ELIC point mutant F19A in oocytes; assay type: cell-based, Erwinia chrysanthemi; settings: read-out: EC50 of activation
T4 construct: expressed in transfected cells; host or cells: Xenopus laevis oocytes (cRNA injection, pTLN vector)
T4 sequence (P0C7B7 whole entry F19A): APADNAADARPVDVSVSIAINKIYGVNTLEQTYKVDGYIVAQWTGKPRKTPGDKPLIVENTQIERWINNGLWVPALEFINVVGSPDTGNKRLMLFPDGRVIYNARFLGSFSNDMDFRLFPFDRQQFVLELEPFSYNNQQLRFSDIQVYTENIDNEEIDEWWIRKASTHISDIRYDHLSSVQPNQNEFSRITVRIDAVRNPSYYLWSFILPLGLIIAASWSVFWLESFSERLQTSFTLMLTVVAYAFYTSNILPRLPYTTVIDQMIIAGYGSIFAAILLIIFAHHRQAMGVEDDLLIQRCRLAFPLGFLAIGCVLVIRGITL
Excerpt: as §1
as §2, with “Two-electrode voltage clamp measurements were performed one day after injection at 20°C (OC-725B, Warner Instrument Corp.).” left out, “Cysteamine containing solutions were supplemented with 1 mM DTT.” left out

[6] = biological target: T5, ELIC Glu131 mutated to alanine (Dickeya chrysanthemi, UniProt P0C7B7, E131A); assay: Two-electrode voltage clamp of ELIC Glu131 alanine mutant; assay type: cell-based, Erwinia chrysanthemi
T5 construct: expressed in transfected cells; host or cells: Xenopus laevis oocytes (cRNA injection, pTLN vector)
T5 sequence (P0C7B7 whole entry E131A): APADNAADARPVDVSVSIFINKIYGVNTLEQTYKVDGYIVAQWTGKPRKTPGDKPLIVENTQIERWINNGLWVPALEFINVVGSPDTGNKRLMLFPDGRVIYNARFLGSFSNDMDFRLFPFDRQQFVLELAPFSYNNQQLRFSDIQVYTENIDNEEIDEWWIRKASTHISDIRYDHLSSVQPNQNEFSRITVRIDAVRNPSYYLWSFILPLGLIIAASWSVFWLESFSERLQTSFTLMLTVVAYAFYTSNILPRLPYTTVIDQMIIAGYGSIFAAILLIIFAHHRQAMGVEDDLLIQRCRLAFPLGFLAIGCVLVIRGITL
Excerpt: as §1
as §2, with “Two-electrode voltage clamp measurements were performed one day after injection at 20°C (OC-725B, Warner Instrument Corp.).” left out, “Cysteamine containing solutions were supplemented with 1 mM DTT.” left out

[7] = biological target: T6, ELIC F246A (Dickeya chrysanthemi, UniProt P0C7B7, F246A); assay: Two-electrode voltage clamp of ELIC pore mutant F246A in oocytes; assay type: cell-based, Erwinia chrysanthemi
T6 construct: expressed in transfected cells; host or cells: Xenopus laevis oocytes (cRNA injection, pTLN vector)
T6 sequence (P0C7B7 whole entry F246A): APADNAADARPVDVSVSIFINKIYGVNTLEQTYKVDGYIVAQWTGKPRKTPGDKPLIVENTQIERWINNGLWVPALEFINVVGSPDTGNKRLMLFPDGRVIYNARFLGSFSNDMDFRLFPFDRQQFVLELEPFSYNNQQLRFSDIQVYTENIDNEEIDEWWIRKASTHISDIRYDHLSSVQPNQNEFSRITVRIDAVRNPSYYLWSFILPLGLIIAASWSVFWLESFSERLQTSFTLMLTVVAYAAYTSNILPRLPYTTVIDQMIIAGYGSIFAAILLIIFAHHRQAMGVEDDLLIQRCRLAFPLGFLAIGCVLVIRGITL
Excerpt: In contrast to the extracellular domain, the pore of ELIC resembles cation selective members of the family that include nAChRs, serotonin receptors, and the prokaryotic channel GLIC (Figure S1G). In cation selective pLGICs, three layers of hydrophobic side-chains provide an overall apolar character to the extracellular half of the pore region while the following two layers of polar residues and a layer of negatively charged residues render the intracellular half hydrophilic,[30]. […] To investigate the role of this aromatic group for channel opening, we have mutated it to alanine and studied the mutant by X-ray crystallography and electrophysiology. […] This shift is due to a mutation of a residue located remote from the ligand binding site and thus likely reflects a decreased efficacy of the channel.
as §2, with “Two-electrode voltage clamp measurements were performed one day after injection at 20°C (OC-725B, Warner Instrument Corp.).” left out, “Cysteamine containing solutions were supplemented with 1 mM DTT.” left out

[8] = biological target: T7, ELIC Phe187 mutated to alanine (Dickeya chrysanthemi, UniProt P0C7B7, F187A); assay: Two-electrode voltage clamp of ELIC Phe187 alanine mutant; assay type: cell-based, Erwinia chrysanthemi
T7 construct: expressed in transfected cells; host or cells: Xenopus laevis oocytes (cRNA injection, pTLN vector)
T7 sequence (P0C7B7 whole entry F187A): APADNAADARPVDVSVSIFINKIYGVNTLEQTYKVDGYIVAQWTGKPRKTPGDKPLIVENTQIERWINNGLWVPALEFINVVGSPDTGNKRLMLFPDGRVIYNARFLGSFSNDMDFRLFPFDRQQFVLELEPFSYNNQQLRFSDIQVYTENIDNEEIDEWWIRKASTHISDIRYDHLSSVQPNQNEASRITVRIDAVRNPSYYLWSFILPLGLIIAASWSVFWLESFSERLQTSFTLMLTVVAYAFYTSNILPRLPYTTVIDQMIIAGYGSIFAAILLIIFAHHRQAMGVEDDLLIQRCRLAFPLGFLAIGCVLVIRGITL
Excerpt: as §1
as §2, with “Two-electrode voltage clamp measurements were performed one day after injection at 20°C (OC-725B, Warner Instrument Corp.).” left out, “Cysteamine containing solutions were supplemented with 1 mM DTT.” left out

[9] = biological target: T8, ELIC Asn103 mutated to alanine (Dickeya chrysanthemi, UniProt P0C7B7, N103A); assay: Two-electrode voltage clamp of ELIC Asn103 alanine mutant; assay type: cell-based, Erwinia chrysanthemi
T8 construct: expressed in transfected cells; host or cells: Xenopus laevis oocytes (cRNA injection, pTLN vector)
T8 sequence (P0C7B7 whole entry N103A): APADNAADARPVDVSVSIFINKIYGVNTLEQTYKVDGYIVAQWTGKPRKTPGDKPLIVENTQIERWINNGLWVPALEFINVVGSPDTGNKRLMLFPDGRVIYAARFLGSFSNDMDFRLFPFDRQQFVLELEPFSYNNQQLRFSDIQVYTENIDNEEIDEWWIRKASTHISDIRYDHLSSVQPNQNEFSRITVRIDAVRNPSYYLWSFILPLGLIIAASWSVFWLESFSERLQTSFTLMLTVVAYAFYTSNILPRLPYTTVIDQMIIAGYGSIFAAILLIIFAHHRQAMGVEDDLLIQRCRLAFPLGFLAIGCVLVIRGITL
Excerpt: as §1
as §2, with “Two-electrode voltage clamp measurements were performed one day after injection at 20°C (OC-725B, Warner Instrument Corp.).” left out, “Cysteamine containing solutions were supplemented with 1 mM DTT.” left out

[10] = biological target: T9, ELIC Ile79 mutated to alanine (Dickeya chrysanthemi, UniProt P0C7B7, I79A); assay: Two-electrode voltage clamp of ELIC Ile79 alanine mutant; assay type: cell-based, Erwinia chrysanthemi
T9 construct: expressed in transfected cells; host or cells: Xenopus laevis oocytes (cRNA injection, pTLN vector)
T9 sequence (P0C7B7 whole entry I79A): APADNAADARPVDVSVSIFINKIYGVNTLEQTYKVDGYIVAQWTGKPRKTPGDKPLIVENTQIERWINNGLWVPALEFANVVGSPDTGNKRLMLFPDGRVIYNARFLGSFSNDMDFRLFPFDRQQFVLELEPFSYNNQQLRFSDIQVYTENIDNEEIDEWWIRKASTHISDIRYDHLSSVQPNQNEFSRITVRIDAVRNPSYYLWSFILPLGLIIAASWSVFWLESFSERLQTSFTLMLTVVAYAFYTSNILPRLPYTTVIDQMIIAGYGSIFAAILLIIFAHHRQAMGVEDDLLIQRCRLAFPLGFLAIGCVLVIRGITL
Excerpt: as §1
as §2, with “Two-electrode voltage clamp measurements were performed one day after injection at 20°C (OC-725B, Warner Instrument Corp.).” left out, “Cysteamine containing solutions were supplemented with 1 mM DTT.” left out

[11] = Protonation of the sulfhydryl group of cysteamine; assay type: physicochemical; settings: at the pH of the recording solution
[12] = biological target: T10, ELIC Tyr174 mutated to alanine (Dickeya chrysanthemi, UniProt P0C7B7, Y174A); assay: Two-electrode voltage clamp of ELIC Tyr174 alanine mutant; assay type: cell-based, Erwinia chrysanthemi
T10 construct: expressed in transfected cells; host or cells: Xenopus laevis oocytes (cRNA injection, pTLN vector)
T10 sequence (P0C7B7 whole entry Y174A): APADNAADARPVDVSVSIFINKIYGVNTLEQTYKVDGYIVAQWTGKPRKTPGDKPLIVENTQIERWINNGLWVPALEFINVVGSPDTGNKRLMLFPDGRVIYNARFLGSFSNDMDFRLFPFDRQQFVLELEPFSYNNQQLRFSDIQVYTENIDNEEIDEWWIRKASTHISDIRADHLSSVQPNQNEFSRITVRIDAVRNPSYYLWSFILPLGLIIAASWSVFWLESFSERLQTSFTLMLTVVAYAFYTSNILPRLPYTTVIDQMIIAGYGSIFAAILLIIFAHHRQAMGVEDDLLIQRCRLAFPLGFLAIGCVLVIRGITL
Excerpt: as §1
as §2, with “Two-electrode voltage clamp measurements were performed one day after injection at 20°C (OC-725B, Warner Instrument Corp.).” left out, “Cysteamine containing solutions were supplemented with 1 mM DTT.” left out

[13] = biological target: T11, ELIC Phe133 mutated to alanine (Dickeya chrysanthemi, UniProt P0C7B7, F133A); assay: Two-electrode voltage clamp of ELIC Phe133 alanine mutant; assay type: cell-based, Erwinia chrysanthemi
T11 construct: expressed in transfected cells; host or cells: Xenopus laevis oocytes (cRNA injection, pTLN vector)
T11 sequence (P0C7B7 whole entry F133A): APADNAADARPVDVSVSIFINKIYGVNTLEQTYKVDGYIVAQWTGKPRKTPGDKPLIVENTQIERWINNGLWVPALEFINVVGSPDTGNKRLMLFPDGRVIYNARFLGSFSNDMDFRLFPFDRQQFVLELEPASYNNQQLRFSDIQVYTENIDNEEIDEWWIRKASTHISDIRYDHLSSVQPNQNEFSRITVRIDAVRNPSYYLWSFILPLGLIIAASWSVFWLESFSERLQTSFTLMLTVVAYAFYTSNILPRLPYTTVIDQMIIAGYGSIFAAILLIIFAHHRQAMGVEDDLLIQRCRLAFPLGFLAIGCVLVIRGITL
Excerpt: as §1
as §2, with “Two-electrode voltage clamp measurements were performed one day after injection at 20°C (OC-725B, Warner Instrument Corp.).” left out, “Cysteamine containing solutions were supplemented with 1 mM DTT.” left out

[14] = biological target: T12, ELIC Glu77 mutated to alanine (Dickeya chrysanthemi, UniProt P0C7B7, E77A); assay: Two-electrode voltage clamp of ELIC Glu77 alanine mutant; assay type: cell-based, Erwinia chrysanthemi
T12 construct: expressed in transfected cells; host or cells: Xenopus laevis oocytes (cRNA injection, pTLN vector)
T12 sequence (P0C7B7 whole entry E77A): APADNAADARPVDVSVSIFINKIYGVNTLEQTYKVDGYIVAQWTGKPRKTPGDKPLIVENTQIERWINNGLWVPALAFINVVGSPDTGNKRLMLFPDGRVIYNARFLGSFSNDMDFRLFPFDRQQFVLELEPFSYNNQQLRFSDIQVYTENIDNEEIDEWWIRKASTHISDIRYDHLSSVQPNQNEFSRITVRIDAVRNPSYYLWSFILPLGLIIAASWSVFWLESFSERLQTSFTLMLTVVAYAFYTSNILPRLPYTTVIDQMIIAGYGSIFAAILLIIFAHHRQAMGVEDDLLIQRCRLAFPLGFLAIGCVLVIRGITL
Excerpt: as §1
as §2, with “Two-electrode voltage clamp measurements were performed one day after injection at 20°C (OC-725B, Warner Instrument Corp.).” left out, “Cysteamine containing solutions were supplemented with 1 mM DTT.” left out

[15] = pH 7.0, two-electrode voltage clamp, -60 mV, fit to Hill equation
[16] = pH 7.0, averages and s.d. of six measurements
[17] = pH 8.0, two-electrode voltage clamp, -60 mV
[18] = pH 9.0, averages and s.d. of six measurements

CCCCN [butylamine]
activating current response of ELIC to the ligand ([1]; -60 mV): weak

NCCCCCN [cadaverine]
activating current response of ELIC to the ligand ([1]; -60 mV): not

NCCCC(=O)O [GABA]
n (Hill coefficient) ([1]; pH 7.0): 3.9 | EC50 [1, 15]: 2400 µM | activating current response of ELIC to the ligand ([1]; -60 mV): activating response at low mM concentrations | Imax/Imax cysteamine [1, 16]: 0.79±0.09

CC(C)N [isopropylamine]
activating current response of ELIC to the ligand ([1]; -60 mV): weak

diaminopropane
n (Hill coefficient) ([1]; pH 8.0): 3.1 | EC50 [1, 17]: 3000 µM | Imax/Imax cysteamine [1, 18]: 1.08±0.03

aminopropanol
n (Hill coefficient) ([1]; pH 7.0): 3.2 | EC50 [1, 15]: 1200 µM | activating current response of ELIC to the ligand ([1]; -60 mV): strong activation | Imax/Imax cysteamine [1, 16]: 1.00±0.014 | EC50 [2]: > 10000 µM | n (Hill coefficient) [3]: 2.45 | fold decrease of the EC50 [3]: 2 fold | EC50 [3]: 511 µM

NCCS [cysteamine]
τact, time constant of channel activation ([4]; 5 mM cysteamine): 20 ± 5 ms | τdeact, time constant of channel deactivation ([4]; washout of 5 mM cysteamine): 53 ± 7 ms | n (Hill coefficient) ([1]; pH 7.0): 2.7 | EC50 [1, 15]: 365 µM | EC50 ([1]; voltage-independent activation): 365 µM | activating current response of ELIC to the ligand ([1]; -60 mV): most efficacious; also recorded: strongest response at low ligand concentration | Imax/Imax cysteamine [1, 16]: 1 | EC50 [5]: > 10000 µM | response to the addition of the ligand [6]: no response | n (Hill coefficient) [7]: 3.0 | EC50 ([7]; read-out: EC50 of activation): 2590 µM | response to the addition of the ligand [8]: no response | response to the addition of the ligand [9]: did not show an activating response | response to the addition of the ligand [10]: no response | n (Hill coefficient) [2]: 2.6 | EC50 [2]: 1900 µM | sulfhydryl groups protonated [11]: > 96% | response to the addition of the ligand [12]: no response | response to the addition of the ligand [13]: no response | response to the addition of the ligand [14]: no response | n (Hill coefficient) [3]: 2.6 | fold decrease of the EC50 [3]: 4 fold | EC50 [3]: 87 µM

NCCCCO
n (Hill coefficient) ([1]; pH 7.0): 2.9 | EC50 [1, 15]: 1700 µM | activating current response of ELIC to the ligand ([1]; -60 mV): strong activation | Imax/Imax cysteamine [1, 16]: 0.98±0.03

NCCN
n (Hill coefficient) ([1]; pH 8.0): 3.2 | EC50 [1, 17]: 2000 µM | activating current response of ELIC to the ligand ([1]; -60 mV): activate ELIC | activating current response of ELIC to the ligand ([1]; -60 mV, listed as aminoethane): already active at neutral conditions | Imax/Imax cysteamine [1, 18]: 1.07±0.06
